Positions of bridges follow the written chain, without caps; N, C: chain ends. Non-standard residues stand in square brackets, D forms with d. Residues, ends and D or L forms follow the SMILES beside them. d(αMeF) = C[C@@](N)(Cc1ccccc1)C(=O)O; Cit = NC(=O)NCCC[C@H](N)C(=O)O; Nle = CCCC[C@H](N)C(=O)O; Orn = NCCC[C@H](N)C(=O)O; Aib = CC(C)(N)C(=O)O
Experiments:
Type in all cases: cell-based
[1] = target: T1, human MC3R (Homo sapiens, UniProt P41968); assay: split-luciferase cAMP sensor assay, agonist mode (measurement window 1), hMC3R; settings: for Emax: % maximal activation, read-out: MC3R cAMP % max activation; for Emax / EC50: agonist mode; for MC4R selectivity vs MC3R: MC4R versus MC3R; for EC50: HEK-293 cells stably expressing hMC3R, read-out: MC3R cAMP EC50
T1 construct: expressed in transfected cells; host or cells: HEK-293 cells stably expressing the GScAMP22F split-luciferase cAMP sensor (parent reporter line from Promega); MC3R clone generated in-house, G418 selection
In short: (§1)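 Live stable cell lines carrying receptor plus GloSensor cAMP22f split-luciferase, loaded with 4% D-luciferin in serum-free medium (~1% serum estimated during assay). Luminescence recorded during in-line peptide addition; direct agonist effect read in window 1, with 20 μM forskolin as normalization reference. EC50 from four-parameter sigmoid fit.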

[2] = target: T2, human MC4R (Homo sapiens, UniProt P32245); assay: split-luciferase cAMP sensor assay, agonist mode (measurement window 1), hMC4R; settings: agonist mode; for Emax: % maximal activation, read-out: MC4R cAMP % max activation; for EC50: HEK-293 cells stably expressing hMC4R, read-out: MC4R cAMP EC50
T2 construct: host or cells: HEK-293 cells stably expressing the GScAMP22F split-luciferase cAMP sensor and hMC4R, G418 selection
In short: as §1

[3] = target: T3, human MC1R (Homo sapiens, UniProt Q01726); assay: split-luciferase cAMP sensor assay, agonist mode, hMC1R; settings: MC4R versus MC1R
T3 construct: expressed in transfected cells; host or cells: HEK-293 cells stably expressing hMC1R and the GScAMP22F cAMP sensor
In short: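 HEK-293 cells stably expressing hMC1R and the GScAMP22F split-luciferase cAMP sensor, preloaded 120 min at 37° C with D-luciferin in serum-free medium. Peptide responses were taken as peak luminescence over 2-13 min minus 2-min baseline, normalized to the α-MSH ECmax. EC50 was obtained from a four-parameter variable-slope fit.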

T2 sequence (P32245 whole entry): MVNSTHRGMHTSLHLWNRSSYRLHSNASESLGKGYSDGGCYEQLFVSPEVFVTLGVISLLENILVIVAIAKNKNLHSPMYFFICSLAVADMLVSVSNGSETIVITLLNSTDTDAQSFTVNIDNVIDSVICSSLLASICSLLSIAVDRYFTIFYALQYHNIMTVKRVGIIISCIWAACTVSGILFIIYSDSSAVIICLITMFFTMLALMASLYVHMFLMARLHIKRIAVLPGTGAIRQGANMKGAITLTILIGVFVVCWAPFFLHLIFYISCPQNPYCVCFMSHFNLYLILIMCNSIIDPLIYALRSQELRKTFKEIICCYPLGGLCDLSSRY
T3 sequence (Q01726 whole entry): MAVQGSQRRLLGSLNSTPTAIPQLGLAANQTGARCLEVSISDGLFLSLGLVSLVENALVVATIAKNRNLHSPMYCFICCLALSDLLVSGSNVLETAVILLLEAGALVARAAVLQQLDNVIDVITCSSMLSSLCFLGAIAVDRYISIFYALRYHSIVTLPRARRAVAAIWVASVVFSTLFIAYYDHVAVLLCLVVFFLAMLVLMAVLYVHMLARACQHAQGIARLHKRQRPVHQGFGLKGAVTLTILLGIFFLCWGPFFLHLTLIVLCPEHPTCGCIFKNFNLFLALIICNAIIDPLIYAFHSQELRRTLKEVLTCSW
T1 sequence (P41968 whole entry): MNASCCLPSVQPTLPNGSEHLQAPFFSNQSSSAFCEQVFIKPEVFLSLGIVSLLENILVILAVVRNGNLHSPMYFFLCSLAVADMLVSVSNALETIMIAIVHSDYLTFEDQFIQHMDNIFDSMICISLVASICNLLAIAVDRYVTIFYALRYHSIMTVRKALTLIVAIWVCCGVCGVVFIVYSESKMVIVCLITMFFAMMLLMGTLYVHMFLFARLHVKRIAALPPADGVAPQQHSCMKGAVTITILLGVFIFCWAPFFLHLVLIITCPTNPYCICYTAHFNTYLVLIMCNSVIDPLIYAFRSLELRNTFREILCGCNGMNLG

| SMILES | Emax [1] [%] | MC4R selectivity vs MC3R [1] | Emax [2] [%] | MC4R selectivity vs MC1R [3] | EC50 [1] [nM] | EC50 [2] [nM] |
| --- | --- | --- | --- | --- | --- | --- |
| CC(=O)N[C@H]1CSSC[C@@H](C(N)=O)NC(=O)[C@H](Cc2ccccc2)NC(=O)[C@H](CCCNC(=N)N)NC(=O)[C@@H](Cc2ccccc2)NC(=O)[C@H](Cc2c[nH]cn2)NC(=O)C(C)(C)NC1=O [CTX-1634, cyclo(Cys-Aib-His-D-Phe-Arg-Phe-Cys)] (Ac-C[Aib]H[dF]RFC-NH2; disulfide 1-7 (inferred)) | 94 | 6.68 | 107 | 4.02 | – | – |
| CC(=O)N[C@@H](CCCNC(=N)N)C(=O)N[C@H]1CSSC[C@@H](C(N)=O)NC(=O)[C@H](Cc2c[nH]c3ccccc23)NC(=O)[C@H](CCCNC(=N)N)NC(=O)[C@@H](Cc2ccccc2)NC(=O)[C@H](CCCNC(=N)N)NC(=O)C(C)(C)NC1=O [CTX-1292, Arg-cyclo(Cys-Aib-Arg-D-Phe-Arg-Trp-Cys)] (Ac-RC[Aib]R[dF]RWC-NH2; disulfide 2-8 (inferred)) | 76 | 21 | 90 | 2.46 | – | – |
| CC(=O)N[C@@H](CCCNC(=N)N)C(=O)N[C@H]1CSSC[C@@H](C(N)=O)NC(=O)[C@H](Cc2c[nH]c3ccccc23)NC(=O)[C@H](CCCNC(=N)N)NC(=O)[C@@](C)(Cc2ccccc2)NC(=O)[C@H](CCCNC(=N)N)NC(=O)[C@@H](C)NC1=O [CTX-1278] (Ac-RC[dA]R[d(αMeF)]RWC-NH2; disulfide 2-8 (inferred)) | 86 | 12 | 105 | 1.13 | – | – |
| CC(=O)N[C@@H](CCCNC(=N)N)C(=O)N[C@H]1CSSC[C@@H](C(N)=O)NC(=O)[C@H](Cc2c[nH]c3ccccc23)NC(=O)[C@H](CCCNC(=N)N)NC(=O)[C@@H](Cc2ccccc2)NC(=O)[C@H](CCCNC(=N)N)NC(=O)[C@H](C)NC1=O [CTX-1267, Arg-cyclo(Cys-Ala-Arg-D-Phe-Arg-Trp-Cys)] (Ac-RCAR[dF]RWC-NH2; disulfide 2-8) | 40 | 4.07 | 96 | 0.5 | 12 | 3 |
| N=C(N)NCCC[C@@H]1NC(=O)CNC(=O)CSC[C@@H](C(N)=O)NC(=O)[C@H](Cc2ccccc2)NC(=O)[C@H](CCCNC(=N)N)NC(=O)[C@@H](Cc2ccccc2)NC1=O [CTX-1654, Thioether-cyclo(Gly-Arg-D-Phe-Arg-Phe-Cys)] ({CH2CO}-GR[dF]RFC-NH2; thioether N-6) | 43 | 5.41 | 81 | 0.62 | – | – |
| CCCC[C@H](NC(=O)[C@H](CCCNC(=N)N)NC(C)=O)C(=O)N[C@H]1CSSC[C@@H](C(N)=O)NC(=O)[C@H](Cc2c[nH]c3ccccc23)NC(=O)[C@H](CCCNC(=N)N)NC(=O)[C@@H](Cc2ccccc2)NC(=O)[C@H](CCCN)NC1=O [CTX-1617, Arg-Nle-cyclo(Cys-Orn-D-Phe-Arg-Trp-Cys)] (Ac-R[Nle]C[Orn][dF]RWC-NH2; disulfide 3-8) | 102 | 11 | 102 | 1.75 | – | – |
| CC1(C)NC(=O)CSC[C@@H](C(N)=O)NC(=O)[C@H](Cc2ccccc2)NC(=O)[C@H](CCCNC(=N)N)NC(=O)[C@@H](Cc2ccccc2)NC(=O)[C@H](CCCNC(N)=O)NC1=O [CTX-1652, Thioether-cyclo(Aib-Cit-D-Phe-Arg-Phe-Cys)] ({CH2CO}-[Aib][Cit][dF]RFC-NH2; thioether N-6) | – | Not active | – | Not active | > 10000 | > 10000 |
| CC(=O)N[C@@H](CCCNC(=N)N)C(=O)N[C@H]1CSSC[C@@H](C(N)=O)NC(=O)[C@H](Cc2c[nH]c3ccccc23)NC(=O)[C@H](CCCNC(=N)N)NC(=O)[C@@H](Cc2ccccc2)NC(=O)[C@H](CCCNC(N)=O)NC(=O)CNC1=O [CTX-1294, Arg-cyclo(Cys-Gly-Cit-D-Phe-Arg-Trp-Cys)] (Ac-RCG[Cit][dF]RWC-NH2; disulfide 2-8 (inferred)) | 33 | 11 | 102 | 111 | – | – |
| C[C@H]1NC(=O)CSC[C@@H](C(N)=O)NC(=O)[C@H](Cc2ccccc2)NC(=O)[C@H](CCCNC(=N)N)NC(=O)[C@@H](Cc2ccccc2)NC(=O)[C@H](CCCNC(=N)N)NC1=O [CTX-1657, Thioether-cyclo(D-Ala-Arg-D-Phe-Arg-Phe-Cys)] ({CH2CO}-[dA]R[dF]RFC-NH2; thioether N-6) | 30 | 3.56 | 78 | 1.42 | – | – |
| CC1(C)NC(=O)CSC[C@@H](C(N)=O)NC(=O)[C@H](Cc2c[nH]c3ccccc23)NC(=O)[C@H](CCCNC(=N)N)NC(=O)[C@@H](Cc2ccccc2)NC(=O)[C@H](CCCNC(N)=O)NC1=O [CTX-1649, Thioether-cyclo(Aib-Cit-D-Phe-Arg-Trp-Cys)] ({CH2CO}-[Aib][Cit][dF]RWC-NH2; thioether N-6) | 79 | 72 | 97 | 1652 | – | – |
| COc1ccc(C[C@H]2NC(=O)[C@H](CCCNC(=N)N)NC(=O)C(C)(C)NC(=O)[C@@H](NC(=O)[C@H](CCCNC(=N)N)NC(C)=O)CSSC[C@@H](C(N)=O)NC(=O)[C@H](Cc3ccccc3)NC(=O)[C@H](CCCNC(=N)N)NC2=O)cc1 [CTX-1298, Arg-cyclo(Cys-Aib-Arg-D-Tyr(4-OMe)-Arg-Phe-Cys)] (Ac-RC[Aib]R[dY](Me)RFC-NH2; disulfide 2-8 (inferred)) | – | 0.93 | 93 | 0.12 | > 10000 | 3.3 |
| CCCC[C@H](NC(=O)[C@H](CCCNC(=N)N)NC(C)=O)C(=O)N[C@H]1CSSC[C@@H](C(N)=O)NC(=O)[C@H](Cc2ccccc2)NC(=O)[C@H](CCCNC(=N)N)NC(=O)[C@@H](Cc2ccccc2)NC(=O)[C@H](CCCNC(N)=O)NC1=O [CTX-1626, Arg-Nle-cyclo(Cys-Cit-D-Phe-Arg-Phe-Cys)] (Ac-R[Nle]C[Cit][dF]RFC-NH2; disulfide 3-8 (inferred)) | 51 | 1.6 | 83 | 3.05 | – | – |
| CC(=O)N[C@@H](CCCNC(=N)N)C(=O)N[C@H]1CSSC[C@@H](C(N)=O)NC(=O)[C@@H](Cc2c[nH]c3ccccc23)NC(=O)[C@H](CCCNC(=N)N)NC(=O)[C@@H](Cc2ccccc2)NC(=O)[C@H](CCCNC(=N)N)NC(=O)[C@@H](C)NC1=O [CTX-1263, Arg-cyclo(Cys-D-Ala-Arg-D-Phe-Arg-D-Trp-Cys)] (Ac-RC[dA]R[dF]R[dW]C-NH2; disulfide 2-8) | 69 | 1.62 | 93 | 1.73 | 11 | – |
| CC(=O)N[C@@H](CCCNC(=N)N)C(=O)N[C@H]1CSSC[C@@H](C(N)=O)NC(=O)[C@@H](Cc2c[nH]c3ccccc23)NC(=O)[C@H](CCCNC(=N)N)NC(=O)[C@@H](Cc2ccccc2)NC(=O)[C@H](CCCNC(N)=O)NC(=O)[C@@H](C)NC1=O [CTX-1286, Arg-cyclo(Cys-D-Ala-Cit-D-Phe-Arg-D-Trp-Cys)] (Ac-RC[dA][Cit][dF]R[dW]C-NH2; disulfide 2-8) | 24 | 2.16 | 91 | 3.4 | – | – |
